One experiment relates to Leishmania major. Put plainly: Antileishmanial activity against Leishmania major promastigotes after 20 hrs. Type of experiment: functional, organism-based.
A further experiment deals with Plasmodium falciparum. Put plainly: Antiplasmodial activity against chloroquine-sensitive Plasmodium falciparum 3D7. It is filed as functional, organism-based.
Experiment [1] can be described thus: Inhibition of phytohemagglutininin A-induced proliferation in human lymphocytes assessed as radiolabeled thymidine uptake. It is filed as cell-based. The settings on record: Lymphocyte.

This passage reports IC50 results from ChEMBL document CHEMBL1155594, “Absolute configuration and antiprotozoal activity of minquartynoic acid” (J Nat Prod, 2000).

Values after ≈ are worked out from the molar mass of the structure shown.

Turning to `C[C@H](O)C#CC#CC#CC#CCCCCCCCC(=O)O` [MINQUARTYNOIC ACID], the results for the IC50 (in the experiment on Leishmania major; with Plasmodium falciparum; in experiment [1]) were 1.4 µg/mL (≈ 4.92 µM), 3 µg/mL (≈ 10.6 µM) and 5.3 µg/mL (≈ 18.6 µM), respectively.
